{"source": "patent US9242941B2", "about": "“Alkyl, fluoroalkyl-1,4-benzodiazepinone compounds” (BRISTOL-MYERS SQUIBB COMPANY, priority 2012, dated 2016)", "key": {"[1]": {"system": "human Notch 1", "test": "Notch-CBF1 Transactivation Assay (Notch 1)", "type": "cell-based", "conditions": "read-out: Notch 1 IC50; Notch-CBF1 transactivation luciferase assay in transfected HeLa cells; some values are an average of N experiments", "outline": "(§1)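 HeLa cells transiently co-transfected with a truncated Notch receptor plus a 4×CBF1-site luciferase reporter were exposed to compounds (5 μM to 8.4×10^−5 μM, 3-fold dilutions) for 18 hours at 37° C. Luciferase was read after Steady-Glo. Inhibition was normalized between DMSO (total) and 0.5 μM in-house inhibitor (background) wells.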"}, "[2]": {"system": "human Notch 3", "test": "Notch-CBF1 Transactivation Assay (Notch 3)", "type": "cell-based", "conditions": "read-out: Notch 3 IC50; Notch-CBF1 transactivation luciferase assay in transfected HeLa cells; some values are an average of N experiments", "outline": "as §1"}, "[3]": {"test": "human metabolic stability half-life assay", "conditions": "microsomes, human liver microsomes", "experimental": "Metabolic Stability Half-Life Panel\nIncubation with Liver Microsomes"}, "[4]": {"system": "Human T-cell acute lymphoblastic leukemia cell line TALL-1", "test": "Human Tumor Xenograft Models in Mice: TALL-1", "type": "in vivo"}, "[5]": {"system": "human triple negative breast carcinoma cell line MDA-MB-157", "test": "Human Tumor Xenograft Models in Mice: MDA-MB-157", "type": "in vivo", "conditions": "PO, QDx15 (10 day on-2 day off-5 day on); FIG. 14; result in words", "experimental": "(§2) Dosed orally; PO, QDx15 (10 day on-2 day off-5 day on). Each symbol represents the median tumor burden of a group of 8 mice.\n(§3) Human Tumor Xenograft Models in Mice\n(§4) Mice were fed food and water ad libitum.\n(§5) Preclinical Chemotherapy Trials\n(§6) Tumor growth inhibition is calculated as follows: […]\n(§7) In Vivo Antitumor Activity"}, "[6]": {"system": "human triple negative breast carcinoma cell line MDA-MB-468", "test": "Human Tumor Xenograft Models in Mice: MDA-MB-468", "type": "in vivo", "conditions": "PO, QDx15 (10 day on-2 day off-5 day on); FIG. 15; result in words", "experimental": "as §2, §3, §4, §5, §6, §7"}, "[7]": {"system": "human PAT70 pancreatic carcinoma cell line", "test": "Human Tumor Xenograft Models in Mice: PAT70", "type": "in vivo", "conditions": "PO, QDx15 (10 day on-2 day off-5 day on); FIG. 16; result in words", "experimental": "as §2, §3, §4, §5, §6, §7"}}, "note": "pIC50: −log10 of the molar value."}
{"compound": "NC(=O)[C@@H](CC1CC1)[C@@H](CCC(F)(F)F)C(=O)N[C@H]1N=C(c2ccccc2)c2cccc(F)c2NC1=O", "note": "[Example 1, (2R,3S)-3-(Cyclopropylmethyl)-N-((3S)-9-fluoro-2-oxo-5-phenyl-2,3-dihydro-1H-1,4-benzodiazepin-3-yl)-2-(3,3,3-trifluoropropyl)succinamide]", "values": [{"measurement": "pIC50", "setting": "[1]", "value": 8.38}, {"measurement": "pIC50", "setting": "[2]", "value": 8.21}, {"measurement": "half-life at 0.5 µM", "setting": "[3]; pH 7.4, CYP-mediated metabolic stability half life, NADPH-dependent", "value": "≥ 0.5", "unit": "h"}, {"measurement": "half-life at 0.5 µM", "setting": "[3]; pH 7.4, HLM (t1/2, min), CYP-mediated (NADPH-dependent), 0.5 μM compound, 45 min time course, some values are an average of N experiments", "value": 1.42, "unit": "h"}, {"measurement": "Antitumor Activity in TALL-1 (LCK), QD dosing", "setting": "[4]; Log Cell Kill, oral administration, QD dosing, schedule QDx10, dose 20 (Ex 1, 52), 12 (Ex 10), 40 (Ex 40), dose unit not given", "value": 4.5}, {"measurement": "in vivo antitumor activity, TALL-1 xenograft", "setting": "[4]; PO, QDx10, FIGS. 12-13, result in words", "value": "exhibited antitumor activity"}, {"measurement": "antitumor activity in the Human Tumor Xenograft Models in mice", "setting": "[4]; oral administration (PO) either BID and/or QD, Table 24 (TALL-1), result in words", "value": "showed antitumor activity"}, {"measurement": "in vivo antitumor activity, MDA-MB-157 xenograft", "setting": "[5]", "value": "exhibited antitumor activity"}, {"measurement": "in vivo antitumor activity, MDA-MB-468 xenograft", "setting": "[6]", "value": "exhibited antitumor activity"}, {"measurement": "in vivo antitumor activity, PAT70 xenograft", "setting": "[7]", "value": "exhibited antitumor activity"}]}
